In ChEMBL document CHEMBL1201862, “PubChem BioAssay data set” (2004):
Each block holds one compound with its values, some of them ahead of it. Calls of active or inactive are those of the source.

Key:
[1] = target: T1, Ubiquitin-conjugating enzyme E2 N (Homo sapiens, UniProt P61088); assay type: functional
T1 sequence (P61088 whole entry): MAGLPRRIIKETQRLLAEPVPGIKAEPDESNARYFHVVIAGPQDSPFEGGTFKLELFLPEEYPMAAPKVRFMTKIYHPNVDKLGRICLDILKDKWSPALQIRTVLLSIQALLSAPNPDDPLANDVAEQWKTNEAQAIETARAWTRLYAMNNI

[2] = enhancers of respiration in Yfh1-depleted yeast, dose response, Friedreich's ataxia, plus single-dose screen (AID 1465); assay type: functional;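 also: yeast depleted of Yfh1p frataxin homolog grown on glycerol needing respiration; WST-1 tetrazolium dye reduction as measure of cellular dehydrogenase metabolic activity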
[3] = target: T2, Bcl-2-related protein A1 (Mus musculus, UniProt Q07440); assay type: functional;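 also: confirmatory dose–response counterscreen on Bfl-1, used to check hits from a UBC13 polyubiquitin inhibitor campaign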
T2 sequence (Q07440 whole entry): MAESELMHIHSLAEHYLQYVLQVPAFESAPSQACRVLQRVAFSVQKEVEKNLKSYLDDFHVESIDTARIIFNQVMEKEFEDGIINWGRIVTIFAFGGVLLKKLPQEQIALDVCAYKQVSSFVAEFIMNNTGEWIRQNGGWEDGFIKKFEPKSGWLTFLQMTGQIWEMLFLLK

[4] = target: T1, Ubiquitin-conjugating enzyme E2 N; assay type: functional; remark: listed apart in the source
[5] = target: T3, Bcl-2-like protein 10 (Homo sapiens, UniProt Q9HD36); test: Biochemical TR3 FP assay of Bcl-B inhibitor potency, EC50 (AID 1243); assay type: functional
T3 sequence (Q9HD36 whole entry): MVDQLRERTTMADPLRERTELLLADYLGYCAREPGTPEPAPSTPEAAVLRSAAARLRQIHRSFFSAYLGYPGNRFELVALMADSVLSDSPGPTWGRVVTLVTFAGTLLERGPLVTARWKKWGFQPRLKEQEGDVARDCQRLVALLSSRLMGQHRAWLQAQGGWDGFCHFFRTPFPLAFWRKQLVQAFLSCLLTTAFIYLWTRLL

[6] = target: Bcl-2-like protein 1 (Homo sapiens, UniProt Q07817); test: BCL-XL inhibitors, dose response, selectivity assay for MCL1 inhibitor project, biochemical, fluorescence polarization, 1536-well (AID 2218)
[7] = target: Induced myeloid leukemia cell differentiation protein Mcl-1 (Homo sapiens, UniProt Q07820); test: MCL1-BIM BH3 interaction inhibitors, dose response, biochemical, fluorescence polarization, BIM-BH3 peptide, 1536-well (AID 2217)
[8] = target: T4, Hexokinase HKDC1 (Homo sapiens, UniProt Q2TB90); test: HKDC1 hexokinase inhibitors, dose response, biochemical, W721R variant (AID 504729); assay type: functional
T4 sequence (Q2TB90 whole entry): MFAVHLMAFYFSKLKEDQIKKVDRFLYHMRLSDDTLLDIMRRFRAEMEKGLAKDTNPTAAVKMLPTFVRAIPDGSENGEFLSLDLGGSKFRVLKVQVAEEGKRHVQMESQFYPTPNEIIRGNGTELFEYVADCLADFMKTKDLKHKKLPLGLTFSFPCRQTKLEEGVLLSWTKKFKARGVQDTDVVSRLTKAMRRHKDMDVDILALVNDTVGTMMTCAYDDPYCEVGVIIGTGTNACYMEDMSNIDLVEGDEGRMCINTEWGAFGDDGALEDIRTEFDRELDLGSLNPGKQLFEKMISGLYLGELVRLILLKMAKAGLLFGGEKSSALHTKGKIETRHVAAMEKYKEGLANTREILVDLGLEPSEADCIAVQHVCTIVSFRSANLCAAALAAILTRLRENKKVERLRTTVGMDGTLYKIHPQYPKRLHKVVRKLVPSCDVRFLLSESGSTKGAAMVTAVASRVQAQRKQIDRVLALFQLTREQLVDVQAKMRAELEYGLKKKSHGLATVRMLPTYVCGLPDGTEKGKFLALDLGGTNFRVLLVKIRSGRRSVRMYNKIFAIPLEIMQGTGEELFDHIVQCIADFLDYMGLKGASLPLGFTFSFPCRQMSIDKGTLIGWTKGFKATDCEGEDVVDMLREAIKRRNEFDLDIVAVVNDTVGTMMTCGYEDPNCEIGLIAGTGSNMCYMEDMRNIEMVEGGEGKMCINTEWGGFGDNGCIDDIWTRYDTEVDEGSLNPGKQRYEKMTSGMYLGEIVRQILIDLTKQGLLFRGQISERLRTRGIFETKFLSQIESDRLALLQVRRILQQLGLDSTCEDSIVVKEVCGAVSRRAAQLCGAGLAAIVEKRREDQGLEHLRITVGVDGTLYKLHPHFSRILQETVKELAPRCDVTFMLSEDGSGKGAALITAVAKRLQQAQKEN

[9] = NIH-3T3 fibroblast cytotoxicity, dose response, cytotoxicity control, cell-based, fluorescence, Alamar Blue, secondary assay (AID 2327); assay type: functional;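 also: NIH-3T3 mouse fibroblasts cultured with fluconazole at 8 µg/mL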
[10] = target: Heat shock protein HSP 90-alpha (Homo sapiens, UniProt P07900); assay type: functional, organism-based
[11] = C. albicans growth with fluconazole, confirmation, fluorescence, retest (AID 2467); assay type: functional, cell-based
[12] = target: Paired box protein Pax-8 (Homo sapiens, UniProt Q06710); test: inhibitors of PAX8-driven TPO luciferase reporter, dose response, RMG-I cells, cherry-pick (AID 687027); assay type: functional, cell-based;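 also: luciferase reporter driven by Pax8 target thyroperoxidase promoter measured by SteadyGlo luminescence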
[13] = non-specific cell cytotoxicity, dose response, cytotoxicity control for PAX8 inhibitor project, plate reader, dry powder samples (AID 743021); assay type: functional, cell-based
[14] = Luminescent dose response cell-based high throughput screening assay for inhibitors of the Janus kinase 2 mutant JAK2V617F. [Related pubchem assays: 1446 (Primary screen.), 1521 (Confirmation assay.), 1486 (Counter screen.)]; assay type: functional

Bcl-2-like protein 1, sequence (Q07817 whole entry): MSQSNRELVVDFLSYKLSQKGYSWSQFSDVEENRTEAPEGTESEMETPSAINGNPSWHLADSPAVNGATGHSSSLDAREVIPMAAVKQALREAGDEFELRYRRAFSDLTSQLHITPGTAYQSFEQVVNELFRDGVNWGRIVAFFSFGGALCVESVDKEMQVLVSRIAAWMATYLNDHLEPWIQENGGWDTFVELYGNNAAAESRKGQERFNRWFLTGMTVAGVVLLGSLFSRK
Paired box protein Pax-8, sequence (Q06710 whole entry): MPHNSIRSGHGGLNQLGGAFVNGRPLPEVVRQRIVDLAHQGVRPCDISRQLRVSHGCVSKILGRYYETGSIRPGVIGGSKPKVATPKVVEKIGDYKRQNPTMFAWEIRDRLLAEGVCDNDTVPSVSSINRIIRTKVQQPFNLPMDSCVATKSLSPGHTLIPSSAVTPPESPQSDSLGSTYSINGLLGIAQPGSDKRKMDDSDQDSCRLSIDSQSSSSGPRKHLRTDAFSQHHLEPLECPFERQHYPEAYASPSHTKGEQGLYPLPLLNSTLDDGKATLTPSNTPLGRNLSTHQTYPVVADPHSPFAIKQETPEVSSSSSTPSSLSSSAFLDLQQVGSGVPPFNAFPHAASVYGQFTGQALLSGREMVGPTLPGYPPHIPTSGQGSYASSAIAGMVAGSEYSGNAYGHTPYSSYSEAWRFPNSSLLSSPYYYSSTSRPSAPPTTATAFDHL
Induced myeloid leukemia cell differentiation protein Mcl-1, sequence (Q07820 whole entry): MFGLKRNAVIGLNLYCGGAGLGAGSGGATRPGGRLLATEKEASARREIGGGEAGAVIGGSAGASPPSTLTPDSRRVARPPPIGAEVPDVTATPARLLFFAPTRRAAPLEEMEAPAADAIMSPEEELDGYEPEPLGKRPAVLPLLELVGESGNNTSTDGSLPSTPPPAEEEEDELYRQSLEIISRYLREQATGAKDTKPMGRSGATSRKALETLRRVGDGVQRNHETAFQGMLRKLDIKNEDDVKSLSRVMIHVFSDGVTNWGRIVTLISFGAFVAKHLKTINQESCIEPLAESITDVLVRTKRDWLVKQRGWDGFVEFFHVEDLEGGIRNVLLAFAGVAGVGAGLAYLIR

IC50 [1]: 18.1 µM (active) | IC50 [3]: > 20 µM (inactive) | IC50 [4]: 18.3 µM (active)
Compound: COc1ccc(C(=O)NC(=S)NNC(=O)c2ccc(NC(C)=O)cc2)cc1Br
EC50 [2]: > 100 µM (active)

EC50 [5]: 13.2 µM (active)
Compound: CCOc1ccc(/C=C(/NC(=O)c2ccc(C)cc2)C(=O)NCCO)cc1

Compound: Cc1ccc(/N=C/c2cc(Cc3ccccc3Cl)cc([N+](=O)[O-])c2O)c(O)c1
IC50 [6]: 7.22 µM (active) | IC50 [7]: 9.13 µM (active) | IC50 [8]: 28.5 µM (inactive) | EC50 [9]: 11.3 µM (active) | AC50 [10]: 1.61 µM (active) | EC50 [11]: 1.78 µM (active)

Compound: O=C(CCl)/N=c1\sccn1Cc1cccc2ccccc12
AC50 [12]: 0.572 µM (active) | AC50 [13]: 1.66 µM (active) | IC50 [14]: 0.224 µM (active)
